Source: ChEMBL document CHEMBL4507292 (2021)

How the values were obtained:
[1] = biological target: Alpha-2B adrenergic receptor (Homo sapiens, UniProt P18089); assay: GPCRScan assay: inhibition of Alpha2B; parameters: radioligand conc. used [nm] 1.5 – 2.0, parental cells HEKT
[2] = biological target: Activin receptor type-1 (Homo sapiens) (UniProt Q04771); conditions: Compound concentration 1000.0 nM
[3] = biological target: Activin receptor type-1-like (Homo sapiens) (UniProt P37023); conditions: Compound concentration 1000.0 nM
[4] = system: ALK tyrosine kinase receptor (Homo sapiens), Q9UM73 [C1156Y]; conditions: Compound concentration 1000.0 nM
[5] = biological target: 5'-AMP-activated protein kinase catalytic subunit alpha-1 (Homo sapiens) (UniProt Q13131); conditions: Compound concentration 1000.0 nM
[6] = biological target: NUAK family SNF1-like kinase 1 (Homo sapiens) (UniProt O60285); conditions: Compound concentration 1000.0 nM
[7] = biological target: Mitogen-activated protein kinase kinase kinase 6 (Homo sapiens) (UniProt O95382); conditions: Compound concentration 1000.0 nM
[8] = biological target: Aurora kinase C (Homo sapiens) (UniProt Q9UQB9); conditions: Compound concentration 1000.0 nM
[9] = biological target: Tyrosine-protein kinase receptor UFO (Homo sapiens) (UniProt P30530); conditions: Compound concentration 1000.0 nM
[10] = biological target: Cyclin-dependent kinase-like 2 (Homo sapiens) (UniProt Q92772); conditions: Compound concentration 1000.0 nM
[11] = biological target: Serine/threonine-protein kinase Chk2 (Homo sapiens) (UniProt O96017); conditions: Compound concentration 1000.0 nM
[12] = biological target: Casein kinase I isoform alpha-like (Homo sapiens) (UniProt Q8N752); conditions: Compound concentration 1000.0 nM
[13] = biological target: Serine/threonine-protein kinase DCLK1 (Homo sapiens) (UniProt O15075); conditions: Compound concentration 1000.0 nM
[14] = biological target: Eukaryotic translation initiation factor 2-alpha kinase 1 (Homo sapiens) (UniProt Q9BQI3); conditions: Compound concentration 1000.0 nM
[15] = biological target: Ephrin type-A receptor 1 (Homo sapiens) (UniProt P21709); conditions: Compound concentration 1000.0 nM
[16] = biological target: Ephrin type-A receptor 3 (Homo sapiens) (UniProt P29320); conditions: Compound concentration 1000.0 nM
[17] = biological target: Receptor tyrosine-protein kinase erbB-2 (Homo sapiens) (UniProt P04626); conditions: Compound concentration 1000.0 nM
[18] = system: Receptor-type tyrosine-protein kinase FLT3 (Homo sapiens), P36888 [D835H]; conditions: Compound concentration 1000.0 nM
[19] = system: Receptor-type tyrosine-protein kinase FLT3 (Homo sapiens), P36888 [D835V]; conditions: Compound concentration 1000.0 nM
[20] = system: Receptor-type tyrosine-protein kinase FLT3 (Homo sapiens), P36888 [UNDEFINED MUTATION]; conditions: Compound concentration 1000.0 nM
[21] = biological target: Tyrosine-protein kinase JAK2 (Homo sapiens) (UniProt O60674); conditions: Compound concentration 1000.0 nM
[22] = biological target: Mitogen-activated protein kinase kinase kinase 15 (Homo sapiens) (UniProt Q6ZN16); conditions: Compound concentration 1000.0 nM
[23] = biological target: MAP kinase-activated protein kinase 2 (Homo sapiens) (UniProt P49137); conditions: Compound concentration 1000.0 nM
[24] = biological target: Serine/threonine-protein kinase PAK 4 (Homo sapiens) (UniProt O96013); conditions: Compound concentration 1000.0 nM
[25] = biological target: Phosphatidylinositol 4-phosphate 3-kinase C2 domain-containing subunit beta (Homo sapiens) (UniProt O00750); conditions: Compound concentration 1000.0 nM
[26] = biological target: Phosphatidylinositol 3-kinase C2 domain-containing subunit gamma (Homo sapiens) (UniProt O75747); conditions: Compound concentration 1000.0 nM
[27] = biological target: Serine/threonine-protein kinase D2 (Homo sapiens) (UniProt Q9BZL6); conditions: Compound concentration 1000.0 nM
[28] = biological target: Ribosomal protein S6 kinase alpha-4 (Homo sapiens) (UniProt O75676); conditions: Compound concentration 1000.0 nM
[29] = biological target: Ribosomal protein S6 kinase alpha-3 (Homo sapiens) (UniProt P51812); conditions: Compound concentration 1000.0 nM
[30] = biological target: Uncharacterized serine/threonine-protein kinase SBK3 (Homo sapiens) (UniProt P0C264); conditions: Compound concentration 1000.0 nM
[31] = biological target: SRSF protein kinase 2 (Homo sapiens) (UniProt P78362); conditions: Compound concentration 1000.0 nM
[32] = biological target: Serine/threonine-protein kinase TAO2 (Homo sapiens) (UniProt Q9UL54); conditions: Compound concentration 1000.0 nM
[33] = biological target: TGF-beta receptor type-1 (Homo sapiens) (UniProt P36897); conditions: Compound concentration 1000.0 nM
[34] = biological target: Serine/threonine-protein kinase TNNI3K (Homo sapiens) (UniProt Q59H18); conditions: Compound concentration 1000.0 nM
[35] = biological target: High affinity nerve growth factor receptor (Homo sapiens) (UniProt P04629); conditions: Compound concentration 1000.0 nM
[36] = biological target: Phosphatidylinositol 3-kinase catalytic subunit type 3 (Homo sapiens) (UniProt Q8NEB9); conditions: Compound concentration 1000.0 nM
[37] = biological target: T1, 5-hydroxytryptamine receptor 3A (Homo sapiens) (UniProt P46098); conditions: Compound concentration 10.0 uM
T1 sequence (whole entry): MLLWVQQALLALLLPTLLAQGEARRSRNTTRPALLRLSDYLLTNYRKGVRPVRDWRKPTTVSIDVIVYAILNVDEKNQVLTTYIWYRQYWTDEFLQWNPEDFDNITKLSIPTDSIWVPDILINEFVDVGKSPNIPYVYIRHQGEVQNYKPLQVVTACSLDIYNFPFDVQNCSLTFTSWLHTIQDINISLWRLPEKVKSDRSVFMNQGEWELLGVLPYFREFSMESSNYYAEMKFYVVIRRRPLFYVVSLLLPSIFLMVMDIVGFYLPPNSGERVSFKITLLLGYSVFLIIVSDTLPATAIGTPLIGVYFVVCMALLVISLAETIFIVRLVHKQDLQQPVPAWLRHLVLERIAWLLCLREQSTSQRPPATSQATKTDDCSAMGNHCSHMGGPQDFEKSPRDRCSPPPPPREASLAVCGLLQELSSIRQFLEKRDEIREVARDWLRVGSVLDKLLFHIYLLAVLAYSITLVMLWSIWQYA

[38] = biological target: Alpha-1B adrenergic receptor (Homo sapiens) (UniProt P35368); conditions: Compound concentration 10.0 uM

Tyrosine-protein kinase receptor UFO (Homo sapiens), sequence (P30530 whole entry): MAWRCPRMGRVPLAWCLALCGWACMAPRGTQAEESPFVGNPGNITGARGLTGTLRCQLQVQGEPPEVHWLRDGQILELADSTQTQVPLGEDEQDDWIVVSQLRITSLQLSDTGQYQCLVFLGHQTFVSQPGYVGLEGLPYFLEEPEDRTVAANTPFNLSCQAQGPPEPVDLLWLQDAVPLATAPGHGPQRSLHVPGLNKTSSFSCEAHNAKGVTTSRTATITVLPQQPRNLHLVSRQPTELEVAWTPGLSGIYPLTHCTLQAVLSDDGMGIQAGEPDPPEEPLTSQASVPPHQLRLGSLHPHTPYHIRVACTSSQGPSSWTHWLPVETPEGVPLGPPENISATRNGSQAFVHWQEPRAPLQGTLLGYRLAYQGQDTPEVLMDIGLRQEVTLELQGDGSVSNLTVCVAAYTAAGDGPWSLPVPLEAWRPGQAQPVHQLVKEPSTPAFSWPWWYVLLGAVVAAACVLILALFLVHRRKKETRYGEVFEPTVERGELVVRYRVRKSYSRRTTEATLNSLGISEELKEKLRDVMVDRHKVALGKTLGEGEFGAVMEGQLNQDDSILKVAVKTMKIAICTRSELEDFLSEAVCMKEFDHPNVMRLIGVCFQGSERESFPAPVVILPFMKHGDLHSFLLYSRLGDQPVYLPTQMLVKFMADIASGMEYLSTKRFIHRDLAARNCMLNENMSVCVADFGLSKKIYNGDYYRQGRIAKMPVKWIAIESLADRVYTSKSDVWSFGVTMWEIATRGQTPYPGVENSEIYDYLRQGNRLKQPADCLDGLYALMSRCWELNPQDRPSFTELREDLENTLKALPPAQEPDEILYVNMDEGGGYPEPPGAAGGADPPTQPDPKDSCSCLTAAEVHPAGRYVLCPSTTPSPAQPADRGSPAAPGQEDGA
Casein kinase I isoform alpha-like (Homo sapiens), sequence (Q8N752 whole entry, canonical isoform): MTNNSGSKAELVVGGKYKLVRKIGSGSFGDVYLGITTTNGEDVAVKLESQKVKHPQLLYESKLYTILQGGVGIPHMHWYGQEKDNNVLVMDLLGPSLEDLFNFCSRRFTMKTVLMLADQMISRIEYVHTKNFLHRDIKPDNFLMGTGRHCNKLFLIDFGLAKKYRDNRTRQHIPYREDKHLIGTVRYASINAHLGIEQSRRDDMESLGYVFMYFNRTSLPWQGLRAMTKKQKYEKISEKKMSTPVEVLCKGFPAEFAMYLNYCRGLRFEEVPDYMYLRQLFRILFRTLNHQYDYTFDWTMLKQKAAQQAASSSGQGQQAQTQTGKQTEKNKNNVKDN
Uncharacterized serine/threonine-protein kinase SBK3 (Homo sapiens), sequence (P0C264 whole entry): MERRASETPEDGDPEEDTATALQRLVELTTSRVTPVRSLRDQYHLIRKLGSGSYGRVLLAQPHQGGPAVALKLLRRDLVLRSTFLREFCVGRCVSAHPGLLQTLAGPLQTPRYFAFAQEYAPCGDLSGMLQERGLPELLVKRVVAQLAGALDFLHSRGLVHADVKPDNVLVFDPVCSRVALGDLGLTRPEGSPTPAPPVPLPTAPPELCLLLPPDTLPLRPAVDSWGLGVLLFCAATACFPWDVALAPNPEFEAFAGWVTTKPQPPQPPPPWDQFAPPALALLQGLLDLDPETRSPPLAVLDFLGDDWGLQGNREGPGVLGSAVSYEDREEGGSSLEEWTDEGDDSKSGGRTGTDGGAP
ALK tyrosine kinase receptor (Homo sapiens), Q9UM73 [C1156Y], sequence (Q9UM73 whole entry C1156Y, looked up): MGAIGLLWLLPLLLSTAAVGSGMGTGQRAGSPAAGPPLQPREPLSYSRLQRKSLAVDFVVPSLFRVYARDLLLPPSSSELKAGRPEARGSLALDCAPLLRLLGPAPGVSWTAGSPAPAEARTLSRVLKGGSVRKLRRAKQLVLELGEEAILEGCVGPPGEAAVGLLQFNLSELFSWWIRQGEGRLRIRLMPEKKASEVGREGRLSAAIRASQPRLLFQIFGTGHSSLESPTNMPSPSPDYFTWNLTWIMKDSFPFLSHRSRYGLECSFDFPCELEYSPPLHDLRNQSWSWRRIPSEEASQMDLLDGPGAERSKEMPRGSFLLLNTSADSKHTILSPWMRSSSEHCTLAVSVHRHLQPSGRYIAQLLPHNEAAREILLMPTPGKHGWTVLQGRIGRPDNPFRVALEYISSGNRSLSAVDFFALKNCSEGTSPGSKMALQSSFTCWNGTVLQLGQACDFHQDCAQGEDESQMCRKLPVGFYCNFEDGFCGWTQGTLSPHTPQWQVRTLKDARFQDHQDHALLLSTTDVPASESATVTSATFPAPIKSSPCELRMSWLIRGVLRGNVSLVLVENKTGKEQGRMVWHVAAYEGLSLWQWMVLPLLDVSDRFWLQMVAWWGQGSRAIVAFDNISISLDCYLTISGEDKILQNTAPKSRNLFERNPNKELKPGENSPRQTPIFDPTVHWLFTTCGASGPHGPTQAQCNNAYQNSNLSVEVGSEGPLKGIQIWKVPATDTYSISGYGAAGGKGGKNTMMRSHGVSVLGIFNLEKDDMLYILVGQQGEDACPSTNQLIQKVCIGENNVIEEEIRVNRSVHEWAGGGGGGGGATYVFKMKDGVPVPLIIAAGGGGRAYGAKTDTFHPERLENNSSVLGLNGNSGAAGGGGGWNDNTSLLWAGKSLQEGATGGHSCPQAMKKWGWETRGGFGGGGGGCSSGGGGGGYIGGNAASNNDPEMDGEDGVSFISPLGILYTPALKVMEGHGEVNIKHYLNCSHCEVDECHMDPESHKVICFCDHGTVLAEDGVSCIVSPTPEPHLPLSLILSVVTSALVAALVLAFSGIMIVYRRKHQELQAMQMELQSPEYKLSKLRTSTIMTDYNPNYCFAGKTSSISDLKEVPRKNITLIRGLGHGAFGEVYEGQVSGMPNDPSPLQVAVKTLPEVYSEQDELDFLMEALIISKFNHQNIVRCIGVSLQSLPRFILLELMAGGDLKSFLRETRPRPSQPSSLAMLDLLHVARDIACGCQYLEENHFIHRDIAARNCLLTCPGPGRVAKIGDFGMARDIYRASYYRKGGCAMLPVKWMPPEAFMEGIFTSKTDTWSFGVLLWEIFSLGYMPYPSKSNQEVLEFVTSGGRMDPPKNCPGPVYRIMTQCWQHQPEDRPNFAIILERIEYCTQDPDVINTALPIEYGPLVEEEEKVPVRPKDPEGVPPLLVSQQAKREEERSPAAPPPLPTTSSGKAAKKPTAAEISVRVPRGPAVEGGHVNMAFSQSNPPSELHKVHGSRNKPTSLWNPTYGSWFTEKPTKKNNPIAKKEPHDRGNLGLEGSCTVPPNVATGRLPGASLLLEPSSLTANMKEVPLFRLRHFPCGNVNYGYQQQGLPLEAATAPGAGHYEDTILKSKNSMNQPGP
Ribosomal protein S6 kinase alpha-4 (Homo sapiens), sequence (O75676 whole entry, looked up): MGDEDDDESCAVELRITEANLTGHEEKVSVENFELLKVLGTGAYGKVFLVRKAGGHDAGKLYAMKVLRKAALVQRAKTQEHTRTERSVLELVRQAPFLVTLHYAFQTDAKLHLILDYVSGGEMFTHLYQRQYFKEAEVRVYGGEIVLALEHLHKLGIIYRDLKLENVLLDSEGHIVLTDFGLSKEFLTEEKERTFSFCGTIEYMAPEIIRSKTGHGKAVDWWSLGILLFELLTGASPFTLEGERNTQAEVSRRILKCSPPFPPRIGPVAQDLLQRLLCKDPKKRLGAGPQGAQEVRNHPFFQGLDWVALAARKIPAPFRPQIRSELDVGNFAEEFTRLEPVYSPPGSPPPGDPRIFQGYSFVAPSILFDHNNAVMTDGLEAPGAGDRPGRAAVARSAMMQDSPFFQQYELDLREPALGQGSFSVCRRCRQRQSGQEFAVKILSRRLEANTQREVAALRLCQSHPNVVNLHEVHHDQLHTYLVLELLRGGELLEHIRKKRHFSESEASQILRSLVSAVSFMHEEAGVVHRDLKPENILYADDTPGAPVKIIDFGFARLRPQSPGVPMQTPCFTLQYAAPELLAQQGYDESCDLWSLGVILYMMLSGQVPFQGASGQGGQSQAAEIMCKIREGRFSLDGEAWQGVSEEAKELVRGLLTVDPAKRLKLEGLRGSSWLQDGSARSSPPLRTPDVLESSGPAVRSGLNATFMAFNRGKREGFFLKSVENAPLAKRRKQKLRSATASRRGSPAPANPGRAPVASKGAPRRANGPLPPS
Ephrin type-A receptor 3 (Homo sapiens), sequence (P29320 whole entry): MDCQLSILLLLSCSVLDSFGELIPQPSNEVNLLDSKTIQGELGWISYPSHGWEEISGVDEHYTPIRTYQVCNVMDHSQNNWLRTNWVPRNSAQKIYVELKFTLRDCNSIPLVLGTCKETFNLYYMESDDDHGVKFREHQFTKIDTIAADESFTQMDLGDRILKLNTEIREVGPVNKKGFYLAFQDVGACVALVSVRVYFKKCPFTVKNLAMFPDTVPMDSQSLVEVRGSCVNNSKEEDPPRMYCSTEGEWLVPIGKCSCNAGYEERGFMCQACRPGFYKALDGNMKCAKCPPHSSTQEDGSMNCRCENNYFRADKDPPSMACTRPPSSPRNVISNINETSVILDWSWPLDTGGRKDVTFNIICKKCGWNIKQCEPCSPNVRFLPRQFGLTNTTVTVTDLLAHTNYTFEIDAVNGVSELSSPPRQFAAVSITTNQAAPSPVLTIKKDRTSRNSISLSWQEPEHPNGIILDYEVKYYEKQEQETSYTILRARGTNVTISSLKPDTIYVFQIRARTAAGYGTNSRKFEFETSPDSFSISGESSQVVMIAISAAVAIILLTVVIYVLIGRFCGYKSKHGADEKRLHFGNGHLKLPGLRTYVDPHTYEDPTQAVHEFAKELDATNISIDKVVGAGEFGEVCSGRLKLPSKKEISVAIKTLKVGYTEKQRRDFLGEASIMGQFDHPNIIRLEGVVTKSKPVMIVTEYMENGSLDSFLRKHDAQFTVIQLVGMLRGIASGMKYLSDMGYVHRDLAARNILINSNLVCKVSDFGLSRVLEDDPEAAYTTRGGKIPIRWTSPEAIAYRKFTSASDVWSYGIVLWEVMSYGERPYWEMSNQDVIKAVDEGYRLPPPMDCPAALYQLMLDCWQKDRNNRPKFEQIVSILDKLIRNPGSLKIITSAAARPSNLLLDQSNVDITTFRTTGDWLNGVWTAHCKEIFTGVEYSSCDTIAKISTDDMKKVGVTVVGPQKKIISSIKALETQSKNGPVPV

Compound	Ki [1] [nM]	residual activity [2] [%]	residual activity [3] [%]	residual activity [4] [%]	residual activity [5] [%]	residual activity [6] [%]	residual activity [7] [%]	residual activity [8] [%]	residual activity [9] [%]	residual activity [10] [%]	residual activity [11] [%]	residual activity [12] [%]	residual activity [13] [%]	residual activity [14] [%]	residual activity [15] [%]	residual activity [16] [%]	residual activity [17] [%]	residual activity [18] [%]	residual activity [19] [%]	residual activity [20] [%]	further results
Cc1c(C(=O)O)cc(-c2ccc(C3CCNCC3)cc2)c2ccc(-c3ccc(C(F)(F)F)cc3)cc12 [PPTN-NC]	1840	100	100	100	98	100	100	92	100	100	100	100	81	77	83	100	100	90	100	100	residual activity [21]: 100%; residual activity [22]: 100%; residual activity [23]: 88%; residual activity [24]: 100%; residual activity [25]: 100%; residual activity [26]: 100%; residual activity [27]: 100%; residual activity [28]: 88%; residual activity [29]: 80%; residual activity [30]: 80%; residual activity [31]: 82%; residual activity [32]: 100%; residual activity [33]: 89%; residual activity [34]: 100%; residual activity [35]: 100%; residual activity [36]: 100%; inhibition [37]: 4.62%; inhibition [38]: 57.4%
O=C(O)c1cc(-c2ccc(C3CCNCC3)cc2)c2ccc(-c3ccc(C(F)(F)F)cc3)cc2c1 [PPTN]	2560	100	100	100	100	100	100	95	100	100	100	100	84	98	100	100	100	81	100	100	residual activity [21]: 100%; residual activity [22]: 99%; residual activity [23]: 51%; residual activity [24]: 100%; residual activity [25]: 100%; residual activity [26]: 100%; residual activity [27]: 100%; residual activity [28]: 100%; residual activity [29]: 80%; residual activity [30]: 75%; residual activity [31]: 100%; residual activity [32]: 100%; residual activity [33]: 81%; residual activity [34]: 100%; residual activity [35]: 100%; residual activity [36]: 100%; inhibition [37]: 4.14%; inhibition [38]: 85.8%
